Positions of bridges follow the written chain, without caps; N, C: chain ends. Non-standard residues stand in square brackets, D forms with d. Residues, ends and D or L forms follow the SMILES beside them. Chains are numbered I, II in the order given. ξ: configuration not given here. *: point of attachment. X2 = O=C(CCCCCN1C(=O)CC(*)C1=O)NNC(=O)CCCCC1SC[C@H]2NC(=O)N[C@@H]12; ξIle = CC[C@H](C)C(N)C(=O)O; Orn = NCCC[C@H](N)C(=O)O
What was measured:
Format in all cases: cell-based
U937 (lymphoma) cells = assay: Flow cytometry binding to tumor cell lines (Example 5); conditions: FIG. 6
Method: (§1) Tumor cell lines in exponential growth phase were cultured in complete culture medium with 10% FBS and grown in 75 cm^2 cell culture flasks. On the day of the experiment, cells were harvested and transferred in V-bottom culture plates, washed with PBS 1× supplemented with BSA 3% and then incubated with the compounds for 30 min at 4° C. in PBS 1× supplemented with BSA 3% and PEG600 2% at various dilutions (serial dilutions).
(§2) After the incubation, cells were washed in PBS 1× supplemented with BSA 3%. For biotinylated compounds, cells are then incubated for 15 min at 4° C. with streptavidin coupled to 680RD fluorochrome.
(§3) After the incubation, cells were washed in PBS 1× supplemented with 3% BSA and then incubated for at least 15 min at 4° C. with DAPI (Thermo Fisher Scientific) in order to exclude dead cells and samples are directly applied to a flow cytometer. Data generated using the flow cytometer was analyzed using Flowjo™10.6.0 Fluorescence geometric mean (via the use of streptavidin-680RD) of samples was standardized by subtracting the fluorescence geometric mean of the negative control (no compound) and the addition of 1. Experimental design is outlined in Table 9.

HL-60 (leukemia) cells = assay: as above; conditions: FIG. 6
Method: as §1, §2, §3

[1] = system: CHO-pgsA-745 cells (GAG-deficient mutant); assay: Flow cytometry binding of biotinylated compounds to CHO cells (Example 3); conditions: 30 min at 4 °C, streptavidin-680RD fluorescence; FIG. 3B
Method: Cell lines in exponential growth phase were cultured in complete culture medium with 10% FBS and grown in 75 cm^2 cell culture flasks. On the day of the experiment, cells were harvested and transferred in V-bottom culture plates, washed with PBS 1× supplemented with BSA 3% and then incubated with (51-hS)2KC-Mal-Biotin, (51-hS)2KS-(51-hS)KC-Mal-Biotin, [(51-hS)2KS]2KK(Biotin) and VAR2-Biotin for 30 min at 4° C. in PBS 1× supplemented with BSA 3% (and eventually PEG600 2%) at various dilutions (serial dilutions).
After the incubation, cells were washed in PBS 1× supplemented with BSA 3%. For visualization, cells were incubated for 15 min at 4° C. with streptavidin coupled to 680RD fluorochrome. After the incubation, cells were washed in PBS 1× supplemented with 3% BSA and then incubated for at least 15 min at 4° C. with 4′,6-diamidino-2-phenylindole (DAPI) (Thermo Fisher Scientific) in order to exclude dead cells. Samples were directly applied to a flow cytometer. Data generated on the flow cytometer was analyzed using Flowjo™ 10.6.0.

CC[C@H](C)C(NC(=O)[C@H](CCCNC(=N)N)NC(=O)[C@H](NC(=O)[C@H](Cc1ccccc1)NC(=O)[C@H](Cc1ccc(O)cc1)NC(=O)[C@H](CCCNC(=N)N)NC(C)=O)C(C)C)C(=O)N[C@@H](CCCN)C(=O)N[C@@H](Cc1ccc(O)cc1)C(=O)N[C@@H](CCCNC(=N)N)C(=O)N[C@H](Cc1c[nH]cn1)C(=O)N[C@@H](CO)C(=O)N[C@@H](CCCCNC(=O)[C@H](CO)NC(=O)[C@@H](Cc1c[nH]cn1)NC(=O)[C@H](CCCNC(=N)N)NC(=O)[C@H](Cc1ccc(O)cc1)NC(=O)[C@H](CCCN)NC(=O)[C@@H](NC(=O)[C@H](CCCNC(=N)N)NC(=O)[C@H](NC(=O)[C@H](Cc1ccccc1)NC(=O)[C@H](Cc1ccc(O)cc1)NC(=O)[C@H](CCCNC(=N)N)NC(C)=O)C(C)C)[C@@H](C)CC)C(=O)N[C@@H](CSC1CC(=O)N(CCCCCC(=O)NNC(=O)CCCCC2SC[C@H]3NC(=O)N[C@@H]23)C1=O)C(N)=O (stereo partly drawn) [(51-hS)2KC-Mal-Biotin] (I: Ac-RYF[dV]R[ξIle][Orn]YR[dH]SKC(X2)-NH2 / II: Ac-RYF[dV]RI[Orn]YR[dH]S; amide I:12-II:C)
reduction of binding on U937 cells as compared with (51-hS)2KS-(51-hS)KC-Mal-Biotin (U937 (lymphoma) cells): at least 10 × | reduction of binding on HL-60 cells as compared with (51-hS)2KS-(51-hS)KC-Mal-Biotin (HL-60 (leukemia) cells): at least 10 × | reduction of fluorescence on CHO-pgsA-745 as compared with fluorescence on CHO-K1 cells [1]: 4.6 fold

— patent publication US20240108739A1, “OLIGOMERIC COMPOUNDS BINDING SPECIFICALLY TO PROTEOGLYCANS” (PHI PHARMA SA, priority 2020, published 2024)
